Read-outs that look alike come from different tables or passages of the source.
Columns and labels:
mIDH1R132H [1] = target: T1, mIDH1R132H (Homo sapiens, UniProt O75874, R132H); assay: enzymatic inhibition assay with commercial IDH1 (R132H) kit; assay type: biochemical; conditions: for Amax (fit parameter) / Amin (fit parameter) / Hill slope: Hill fit; for Amax (fit parameter) / Amin (fit parameter) / Hill slope / IC50: parentheses = 95% CI; for IC50: non-labeled compounds, n = 3, read-out: IC50 for suppression of mIDH1R132H
T1 construct: purchased BPS Bioscience, San Diego, CA, USA
T1 sequence (O75874 whole entry R132H): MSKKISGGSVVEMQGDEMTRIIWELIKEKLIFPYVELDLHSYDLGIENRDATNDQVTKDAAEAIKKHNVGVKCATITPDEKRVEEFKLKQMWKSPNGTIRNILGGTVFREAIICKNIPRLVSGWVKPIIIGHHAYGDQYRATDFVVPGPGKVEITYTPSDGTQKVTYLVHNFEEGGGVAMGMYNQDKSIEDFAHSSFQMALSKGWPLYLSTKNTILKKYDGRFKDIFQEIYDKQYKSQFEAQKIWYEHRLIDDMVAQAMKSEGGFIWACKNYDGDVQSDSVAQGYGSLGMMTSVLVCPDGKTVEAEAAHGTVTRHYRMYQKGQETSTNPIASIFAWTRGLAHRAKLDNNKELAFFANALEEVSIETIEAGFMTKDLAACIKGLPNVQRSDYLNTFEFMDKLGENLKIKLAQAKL
Procedure: The inhibitory activity of the candidate probes against mIDH1 was evaluated by enzymatic assays with serially diluted solutions of the non-labeled compounds using a commercially available assay kit (IDH1 (R132H) from BPS Bioscience, San Diego, CA, USA). IC50 values were determined with GraphPad Prism 4.00 by fitting the resulting dose-response curves with the Hill function.
Data are shown as mean ± standard deviation (n = 3). For additional fit parameters and 95% confidence intervals, see Table S12 in Section S4.1.4 of Supplementary Materials. TEXT PRINTED IN THE PICTURE: (S)-2: IC50 [nM]: 102 | (R)-2: IC50 [nM]: 1358 | 4: IC50 [nM]: 713 | 5: IC50 [nM]: 8279
4.1.4. Inhibitory potency (IC50)
Values in parenthesis indicate 95% confidence intervals.

U87-mIDH cells = assay: cellular uptake in U87-mIDH cells; assay type: cell-based, human; conditions: U87-mIDH cells; for cellular uptake: incubation 1 h
Procedure: (§1) Consistent with this assumption, uptake of [^18F]4 and, to a lesser extent, the ^18F-fluoroethoxylated analog [^18F]5 by both cell lines was considerably higher than that of (S)-[^18F]2.
(§2) Human glioblastoma cells with a c.395G>A knock-in mutation encoding mIDH1R132H (HTB-14IG™) and the corresponding wildtype cells (HTB-14™) were purchased from the American Type Culture Collection (ATCC). The cells were grown under standard culture conditions (5% CO2 and 95% air at 37 °C) in Eagle’s Minimum Essential Medium (MEM) supplemented with 10% fetal bovine serum (FBS) and antibiotics (penicillin–streptomycin mixed solution, Gibco, Thermo Fisher Scientific, Oberhausen, Germany).
(§3) For the cellular uptake studies, 1.5 × 10^5 cells were seeded into gelatin-coated 12-well transwell plates and incubated in 1 mL MEM (without FBS and antibiotics) containing 18.5 kBq (0.5 µCi) of the corresponding radiotracer. After incubation at 21 °C for 1 h, the supernatant was collected, the cells were lysed with 40 mM NaOH and the radioactivity of both fractions was measured with a gamma counter. The total protein concentration of the cell lysate was measured by a bicinchoninic acid (BCA) assay. The radiotracer uptake was calculated as the ratio of radioactivity in the cell fraction and the supernatant and normalized by protein content (% uptake/100 µg protein). Statistical analysis of the results was performed with Originlab Pro 2023b using two-tailed t-tests with a significance level of 0.05 to identify significant differences between groups.

[2] = lipophilicity by shake-flask method (n-octanol/water or PBS); assay type: physicochemical; conditions: triplicate; for logD: n-octanol/PBS pH 7.4, shake-flask, read-out: logD7.4 Exp. Determined; for logP: n-octanol/water, shake-flask
Procedure: As a measure for the lipophilicity of the four radiolabeled probes, their partition coefficients (logP) and distribution coefficients at pH 7.4 (logD7.4) were determined by the shake-flask method. Table 1 summarizes the results of these experiments and compares them with the predicted logD7.4 values calculated using the ADMETlab platform.
A solution of the corresponding radiotracer in DMSO (1 µL) was added to a mixture of n-octanol and PBS (pH = 7.4) or water (750 µL of each) in a 2 mL Eppendorf vial and the vial was vortexed for 2 min and centrifuged for another 2 min to separate the two phases. A total of 300 µL of the upper n-octanol phase was then carefully removed from the top, while 300 µL of the aqueous phase was removed by piercing the bottom of the vial with a syringe and cannula to avoid contact with the organic phase. Both fractions were transferred into fresh vials and counted in a gamma counter to determine the ratio between the activity in the organic and the aqueous phase. All measurements were performed in triplicate and the results are expressed as mean ± standard deviation of the logarithm of the partition coefficient between n-octanol and water (logP) or the logarithm of the distribution coefficient between n-octanol and PBS (logD7.4), respectively.

[3] = stability of reference compounds in DMSO; assay type: physicochemical; conditions: room temperature, at least 28 h, non-labeled reference compounds
Procedure: The in vitro stability of the radiolabeled probes was evaluated by incubation studies with phosphate-buffered saline (PBS) and rat serum.
A solution of the corresponding reference compound in DMSO (1 mg/mL) was incubated at room temperature for 28–30 h, during which aliquots were removed every few hours and analyzed by analytical HPLC. The fraction of intact reference compound at each time point was calculated by dividing the peak area of the reference compound by the total area of all peaks in the chromatogram and plotted as a function of time.

U87-WT cells = assay: cellular uptake in U87-WT cells; assay type: cell-based, human; conditions: incubation 1 h
Procedure: as §1, §2, §3

mIDH1R132H [4] = target: T1, mIDH1R132H; conditions: cited from earlier work

Row | Structure (SMILES) | Amax (fit parameter) (mIDH1R132H [1]) | Amin (fit parameter) (mIDH1R132H [1]) | Hill slope (mIDH1R132H [1]) | IC50 (mIDH1R132H [1]) | logD [2] | decomposition in DMSO [3] | cellular uptake (U87-mIDH cells) | other results
1 | C[C@H](Nc1ccc(C#N)n(C)c1=O)c1cc2cc(F)ccc2[nH]c1=O [(S)-2, (S)-5-[{1-(6-Fluoro-2-oxo-1,2-dihydroquinoline-3-yl)ethyl}amino]-1-methyl-6-oxo-1,6-dihydropyridine-2-carbonitrile] | 95 (93−97) % | 33 (30−35) % | 5.6 (4.0−7.2) | 102 nM | – | no decomposition | – | –
2 | N#Cc1ccc(NCc2cc3cc(F)ccc3[nH]c2=O)cc1OCC[18F] [[^18F]5] | – | – | – | – | 2.72 ± 0.06 | – | 3.2 ± 0.6 % per 100 µg protein | cellular uptake (U87-WT cells): 3.7 ± 0.6 % per 100 µg protein; logP ([2]; read-out: logP): 2.77 ± 0.03
3 | COc1cc(NCc2cc3cc(Cl)ccc3[nH]c2=O)ccc1C#N [compound 3] | – | – | – | – | – | – | – | Selectivity (ratio of biochemical IC50 values for mIDH1R132H and the wildtype enzyme) (mIDH1R132H [4]): > 700
4 | N#Cc1ccc(NCc2cc3cc(F)ccc3[nH]c2=O)cc1OCCF [compound 5, 4-(((6-Fluoro-2-oxo-1,2-dihydroquinolin-3-yl)methyl)amino)-2-(2-fluoroethoxy)benzonitrile] | 41 (36−45) % | 3 (2−3) % | 2.1 (1.6−2.7) | 8280 nM | – | less than 10% | – | –
5 | CC(Nc1ccc(C#N)n(C)c1=O)c1cc2cc(F)ccc2[nH]c1=O (centres unmarked) [mIDH-23] | – | – | – | – | – | – | – | IC50 (mIDH1R132H [4]; biochemical assays, read-out: IC50 (reported potency for inhibition of mIDH1R132H)): 23 nM; Selectivity (ratio of biochemical IC50 values for mIDH1R132H and the wildtype enzyme) (mIDH1R132H [4]): > 400

Now from value to compound, other results behind:

Row | Amax (fit parameter) (mIDH1R132H [1]) | Amin (fit parameter) (mIDH1R132H [1]) | Hill slope (mIDH1R132H [1]) | IC50 (mIDH1R132H [1]) | logD [2] | decomposition in DMSO [3] | Structure (SMILES) | cellular uptake (U87-mIDH cells) | other results
6 | 79 (72−87) % | 28 (25−31) % | 3.0 (1.3−4.8) | 1360 nM | – | – | C[C@@H](Nc1ccc(C#N)n(C)c1=O)c1cc2cc(F)ccc2[nH]c1=O [(R)-2, (R)-5-[{1-(6-Fluoro-2-oxo-1,2-dihydroquinoline-3-yl)ethyl}amino]-1-methyl-6-oxo-1,6-dihydropyridine-2-carbonitrile] | – | fold higher IC50 value relative to (S)-enantiomer (mIDH1R132H [1]): > 10 fold
7 | – | – | – | – | 2.51 ± 0.11 | – | C[C@@H](Nc1ccc(C#N)n(C)c1=O)c1cc2cc([18F])ccc2[nH]c1=O [(R)-[^18F]2] | 0.5 ± 0.1 % per 100 µg protein | logP [2]: negative
8 | – | – | – | – | 2.51 ± 0.11 | – | C[C@H](Nc1ccc(C#N)n(C)c1=O)c1cc2cc([18F])ccc2[nH]c1=O [(S)-[^18F]2] | 0.9 ± 0.2 % per 100 µg protein | fold higher cellular uptake than (R)-[^18F]2 (U87-mIDH cells): approx. 2 fold; cellular uptake (U87-WT cells): 1.2 ± 0.7 % per 100 µg protein
9 | 98 (96−100) % | 1.8 (0.6−3.0) % | 2.8 (2.5−3.0) | 713 nM | – | less than 10% | COc1cc(NCc2cc3cc(F)ccc3[nH]c2=O)ccc1C#N [compound 4, 4-{[(6-Fluoro-2-oxo-1,2-dihydroquinolin-3-yl)methyl]amino}-2-methoxybenzonitrile] | – | fold lower potency than (S)-2 in functional assays (mIDH1R132H [1]): roughly 7 fold
